# Results as given in US20250387357A1 (SpringWorks Therapeutics, Inc., priority 2024, published 2025).
# Tests used:
# UGT and CES enzymes = test: Metabolism, primary pathway; conditions: full wording over r33-r36: Metabolism involves glucuronidation and oxidation via UGT and CES enzymes
# [1] = Pharmacokinetic parameters and characteristics of mirdametinib (Table A); parameters: species or system human; conditions: in vivo
smiles,measurement,setting,value
"O=C(NOC[C@H](O)CO)c1ccc(F)c(F)c1Nc1ccc(I)cc1F (single isomer, unassigned) [mirdametinib]",Metabolism primary pathway,UGT and CES enzymes,Metabolism involves
same,Excretion: Radioactivity in feces,[1],In feces: 27%
same,Excretion: Radioactivity in urine,[1],In urine: 68%
same,Excretion: Unchanged mirdametinib in urine,[1],In urine: 0.7%
same,Excretion: Unchanged mirdametinib in urine and feces,[1],In urine and feces: 9%
